The structures appear in SMILES notation. pKi: −log10 of the molar value. “Also recorded” adds a separate entry of the source.

Assay [1] addresses T1, purified LasB protein from P. aeruginosa (Pseudomonas aeruginosa, UniProt P14756).
T1 construct: purchased Merck or Charles River Laboratories
The assay is described as follows: Fluorometric assay to determine Ki (purified LasB, Abz-Ala-Gly-Leu-Ala-p-Nitro-Benzyl-Amide substrate). In kind it is biochemical. The method, boiled down: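 Purified P. aeruginosa LasB (10-140 ng/ml) with 250 μM Abz-Ala-Gly-Leu-Ala-p-nitrobenzylamide in Tris pH 7.4, 2.5 mM CaCl2, 0.01% Triton X100; fluorescence (340/415 nm) followed 30 min at 37 °C. IC50 from 2-fold series (0.0016-200 μM); Ki = IC50/(1+[S]/Km), Km 214 μM.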

Assay [2] has as its target T2, LasB elastase activity of dialysed supernatant from P. aeruginosa PAO1 (Pseudomonas aeruginosa, UniProt P14756).
T2 construct: Culture supernatants are recovered by centrifugation and filtrated through a 0.22 μM filter; endogenous in cells; host or cells: P. aeruginosa strain PAO1, culture supernatant, filtered and dialysed
The assay is described as follows: Elastin Congo-Red assay to determine % inhibition (dialysed PAO1 supernatant). In kind it is biochemical. Conditions: read-out: Elastin hydrolysis % inhibition @ 25 μM inhibitor concentration. The method, boiled down: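 End-point assay: dialysed PAO1 culture supernatant (in 50 mM Tris-HCl pH 7.4, 2.5 mM CaCl2) mixed with Elastin Congo-Red plus 0.01% Triton X100 and compound (routinely 50 to 1.56 μM), incubated overnight at 37 °C with shaking. Released dye read at OD495nm; % inhibition relative to DMSO and enzyme-free controls.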

For a further assay, the target named is purified LasB (Pseudomonas aeruginosa, UniProt P14756). The assay is described as follows: Inhibition of LasB-mediated hydrolysis of pro-IL-1β to IL-1β (FRET peptide). Type of assay: biochemical. The protocol:
Hydrolysis of this FRET peptide was continuously monitored using a Victor multimode plate reader (Perkin Elmer) with excitation 355 nm and emission at 450 nm in the presence of varying concentrations of compounds of the invention. Inhibitory constants (Ki) were determined for certain compounds of the invention (at least 2 independent replicates) using a competitive inhibitor model.

A further assay relates to PA (PAO1). The assay is described as follows: Mouse model of Pseudomonas aeruginosa lung infection. Type of assay: in vivo. As to conditions: mice infected with wild-type PAO1, i.v. 1 h and 2 h post infection, 10 and 30 mg/kg, 24 hours post infection. The protocol: Mice were dosed by intranasal inoculation of PA (PAO1), then sacrificed after 24 hours. The extent of infection in the lung was quantified by bacterial load (CFU determination, colony forming units) and the levels of proinflammatory IL-1β. Statistical analysis on both readouts were performed by ANOVA with a Dunnett post-test.
Compounds were administered intravenously in a two-dose regimen (1 hour and 2 hours post infection) at two different doses (10 and 30 mg/kg).

Assay [3] has as its target T3, LasB from Pseudomonas aeruginosa (Pseudomonas aeruginosa, UniProt P14756).
T3 construct: host or cells: Exogenous enzyme applied apically to NHBE cells
The assay is described as follows: Inhibition of LasB-mediated reduction of CFTR levels on airway cells (CFTR IP / Western blot). In kind it is cell-based. Conditions: NHBE airway cells, 100 nM LasB, 1, 10 or 100 μM compound, 24 hrs. As to the method: These experiments measured the amount of CFTR protein expressed in airway cells under normal conditions and also exposed to 100 nM LasB. […] The effect of adding increasing concentrations of a LasB inhibitor (here the compound of Example 23) on this reduction of CFTR by LasB was then examined.
Normal Human Bronchial Epithelial (NHBE) airway cells were expanded in Pneumacult™ EX medium on plastic PureCol™ coated dishes. Cells were plated on Millicell inserts (200K/insert) and differentiated at air-liquid interface for 26 days in modified Lonza Medium. Prior to treatment, cells were washed in 1×DPBS buffer.
Treatments were 100 nM LasB from Pseudomonas aeruginosa and 0, 1, 10, or 100 μM Example 23 for 24 hrs. A stock solution of LasB (200 nM) was prepared in buffer containing 50 mM Tris HCL pH 7.4, 2.5 mM CaCl2 and 0.01% TritonX-100. A 20 mM stock solution of Example 23 was made in DMSO and sonicated for 10 minutes. The DMSO stock was diluted, 10 μL into 990 μL buffer, to give a 200 μM solution. […]
The cells were lysed with 1% NP-40 lysis buffer containing protease inhibitors (1 μg/ml leupeptin, 2 μg/ml aprotinin, […] pefabloc, 121 μg/ml benzamidine, 3.5 μg/ml E64) and stored at −80° C. until IP/WB analysis. […] Protein bands were visualized using a Sapphire Biomolecular Imager (Azure Biosystems) and quantitated with AzureSpot Analysis Software.

The next assay relates to F508del-CFTR cells. Kind of assay: Forskolin-activated CFTR response in CF-mutant human bronchial epithelial cells (membrane potential dye). In kind it is cell-based. The protocol: This example describes experiments showing that LasB impacted CFTR function in CF mutant cells can be mitigated by treatment with CFTR modulators and LasB inhibitors.
Wild Type human bronchial epithelial (HBE) cells and CF-mutant human bronchial epithelial cells (F508del-CFTR) are grown at 37° C. for 5 days and loaded onto 96-well plate cultures. The cells are loaded with blue membrane potential dye dissolved in chloride-free buffer. The plate is read in a fluorescence plate reader at 37° C. (excitation: 530 nm; emission; […]). CFTR is stimulated with forskolin.
A control signal defined as 100% transmission is obtained from WT human bronchial epithelial cells alone. A minor suppression of forskolin-activated CFTR response is expected for such WT cells in the presence of LasB.
Moderate suppression in the forskolin-activated CFTR response will be observed for CF-mutant cells. This moderate suppression will be reduced by addition of a CFTR modulator such as VX-809 (lumacaftor).
Substantial suppression in the forskolin-activated CFTR response is expected for CF-mutant cells in the presence of LasB, even following the addition of a CFTR modulator, due to the deleterious effect of LasB on expressed CFTR protein.

Assay [4] deals with PAO1 WT secretome (contains LasB). As to conditions: WT-SEC treated cells; cited from earlier work.
In assay [5] the test system is cells infected by tobramycin-resistance PA bacteria. As to conditions: combination with CFTR modulators, tobramycin-resistant PA; cited from earlier work.

purified LasB, sequence (P14756 198-498): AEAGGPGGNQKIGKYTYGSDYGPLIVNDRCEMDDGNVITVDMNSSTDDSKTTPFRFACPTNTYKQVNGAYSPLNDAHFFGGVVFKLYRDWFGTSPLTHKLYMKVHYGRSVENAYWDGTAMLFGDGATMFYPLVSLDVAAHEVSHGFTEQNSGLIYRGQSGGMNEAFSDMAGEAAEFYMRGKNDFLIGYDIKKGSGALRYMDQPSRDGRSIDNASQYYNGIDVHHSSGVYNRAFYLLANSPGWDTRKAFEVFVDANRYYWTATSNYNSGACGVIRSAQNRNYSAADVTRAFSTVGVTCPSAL
T2 sequence (P14756 198-498): as above
T1 sequence (P14756 198-498): as above
T3 sequence (P14756 198-498): as above

As to `COc1cc2sc(CNC(=O)C3(CC(=O)[O-])Cc4ccccc4C3)nc2cc1OCCC[N+](C)(C)CCO` [Example 20, 2-[2-[[5-[3-[2-hydroxyethyl(dimethyl)ammonio]propoxy]-6-methoxy-1,3-benzothiazol-2-yl]methylcarbamoyl]indan-2-yl]acetate], the pKi (in general, −log10 of the Ki, conventionally taken in molar units) in assay [1] is over 7.30; on purified LasB, 6.47. Moreover, in assay [2], the inhibition at 25 µM was in the range of 60 to 80%.

`COc1cc2sc(CNC(=O)C3(CC(=O)[O-])Cc4ccccc4C3)nc2cc1OCCC[N+](C)(CCO)CCO` [Example 22, 2-[2-[[5-[3-[bis(2-hydroxyethyl)-methyl-ammonio]propoxy]-6-methoxy-1,3-benzothiazol-2-yl]methylcarbamoyl]indan-2-yl]acetate]: the pKi in assay [1] is over 7.30; on purified LasB, 6.40. For the same compound, the inhibition at 25 µM in assay [2] lay within 60 to 80%.

Turning to `COc1cc2sc(CNC(=O)C3(CC(=O)[O-])Cc4cc(F)c(F)cc4C3)nc2cc1OCCC[N+](C)(CCO)CCO` [Example 23, 2-[2-[[5-[3-[bis(2-hydroxyethyl)-methyl-ammonio]propoxy]-6-methoxy-1,3-benzothiazol-2-yl]methylcarbamoyl]-5,6-difluoro-indan-2-yl]acetate], the pKi in assay [1] is over 7.30; on purified LasB, 6.30. Besides, the inhibition at 25 µM in assay [2] was over 80%. In the assay on PA (PAO1), the “extent of infection in the lung (CFU levels)” value is reported as “reduced the extent of infection in the lung to the level of the LasB deleted mutant”. Besides, the “production and activation of IL-1β in the lung” value in the assay on PA (PAO1) was “inhibited the production and activation of IL-1β in mice infected by wild-type PA (PA01) at a similar level than the lasB deleted mutant”. For the same compound, in assay [3], the “CFTR protein level in LasB-exposed cells” value was “ameliorated by increasing concentrations of Example 23; also recorded: counteract the reduction in CFTR expression caused by LasB in a dose-related manner”.

As to `COc1cc2sc(CNC(=O)C3(CC(=O)[O-])Cc4cc(F)c(F)cc4C3)nc2cc1OCC1CC[N+](C)(C)CC1` [Example 44, 2-[2-[[5-[(1,1-dimethylpiperidin-1-ium-4-yl)methoxy]-6-methoxy-1,3-benzothiazol-2-yl]methylcarbamoyl]-5,6-difluoro-indan-2-yl]acetate], the pKi in assay [1] was over 7.30; on purified LasB it was 6.52. Also, the inhibition at 25 µM in assay [2] is over 80%.

For the compound `COc1cc2sc(CNC(=O)C3(CC(=O)[O-])Cc4ccccc4C3)nc2cc1OCCC[N+](C)(C)C` [Example 53, 2-[2-[[6-methoxy-5-[3-(trimethylammonio)propoxy]-1,3-benzothiazol-2-yl]methylcarbamoyl]indan-2-yl]acetate], the pKi was over 7.30 in assay [1] and 6.15 at purified LasB. For the same compound, the “extent of infection in the lung (CFU levels)” value in the assay on PA (PAO1) is recorded as “reduced the extent of infection in the lung to the level of the LasB deleted mutant”. For the same compound, in the assay with PA (PAO1), the “production and activation of IL-1β in the lung” value was “inhibited the production and activation of IL-1β in mice infected by wild-type PA (PA01) at a similar level than the lasB deleted mutant”. Besides, the “Maximum forskolin-activated response of CFTR channels compared to WT human bronchial epithelial cells” value with F508del-CFTR cells (F508del-CFTR cells + 10 μM VX-809 + 0.01 μM LasB + 10 μM Example 53) is recorded as “forskolin-activated CFTR response being substantially restored; also recorded: Minor suppression of CFTR”.

As to `Cc1ccc(NC(=O)C2(c3ccc4c(c3)OC(F)(F)O4)CC2)nc1-c1cccc(C(=O)O)c1` [VX-809, lumacaftor, reference compound], the entries for the “Maximum forskolin-activated response of CFTR channels compared to WT human bronchial epithelial cells” value in the assay on F508del-CFTR cells (F508del-CFTR cells + 10 μM VX-809) and in the assay with F508del-CFTR cells (F508del-CFTR cells + 10 μM VX-809 + 0.01 μM LasB) were “Minor suppression of CFTR” and “substantial suppression of CFTR”, respectively.

`CC(C)C[C@H](NP(=O)(O)O[C@@H]1O[C@@H](C)[C@H](O)[C@@H](O)[C@H]1O)C(=O)N[C@@H](Cc1c[nH]c2ccccc12)C(=O)O` [phosphoramidon]: the “downregulation of trappin-2 and IL-6 by WT secretome” value in assay [4] was “prevented”.

Consider `NC[C@H]1O[C@H](O[C@H]2[C@H](O)[C@@H](O[C@H]3O[C@H](CO)[C@@H](O)[C@H](N)[C@H]3O)[C@H](N)C[C@@H]2N)[C@H](N)C[C@@H]1O` [tobramycin], for which, in assay [5], the “restoration of CFTR function” value is given as “incapable of restoring CFTR function”.

Values taken from patent publication US20240016941A1, “COMBINATION THERAPY” (priority 2020, published 2024).
